From PMC10254233, “Synthesis and In Vitro Biological Evaluation of p-Carborane-Based Di-tert-butylphenol Analogs” (Molecules, 2023) come the findings set out here.

The target in one data set is T1, 5-LO (Homo sapiens, UniProt P09917).
T1 sequence (P09917 1-674): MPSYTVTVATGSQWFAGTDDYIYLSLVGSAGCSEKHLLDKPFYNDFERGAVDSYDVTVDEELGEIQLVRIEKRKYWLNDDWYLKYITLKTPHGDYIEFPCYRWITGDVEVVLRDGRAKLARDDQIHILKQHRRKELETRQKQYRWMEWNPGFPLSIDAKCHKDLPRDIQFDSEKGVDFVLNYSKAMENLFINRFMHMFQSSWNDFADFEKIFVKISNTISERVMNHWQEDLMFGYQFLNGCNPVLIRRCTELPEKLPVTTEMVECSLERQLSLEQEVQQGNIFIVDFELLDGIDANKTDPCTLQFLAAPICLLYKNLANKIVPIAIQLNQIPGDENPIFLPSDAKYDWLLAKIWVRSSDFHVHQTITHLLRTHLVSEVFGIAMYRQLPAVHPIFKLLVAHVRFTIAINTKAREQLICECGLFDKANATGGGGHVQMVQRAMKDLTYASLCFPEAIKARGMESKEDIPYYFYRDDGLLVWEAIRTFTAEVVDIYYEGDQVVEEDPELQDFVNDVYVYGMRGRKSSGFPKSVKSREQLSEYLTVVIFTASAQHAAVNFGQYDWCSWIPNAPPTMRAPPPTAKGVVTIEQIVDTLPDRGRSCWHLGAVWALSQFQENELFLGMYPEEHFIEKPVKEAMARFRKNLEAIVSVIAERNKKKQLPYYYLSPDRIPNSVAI
Description: 5-LO product formation in intact PMNL. The conditions noted are these: PMNL, read-out: inhibition of 5-LO product formation.

Data set [1] relates to A375 melanoma. Put plainly: Cell viability, crystal violet (CV) assay, A375. In kind it is cell-based. The conditions noted are these: Homo sapiens, A-375; 72 h, mean ± SD. The method, then:
(§1) Five human cell lines (A375 melanoma, A549 lung adenocarcinoma, HCT116 and HT29 colorectal carcinoma, MDA-MB-231 triple-negative breast adenocarcinoma) were used to study the antitumor effects of the di-tert-butylphenols and their respective carborane analogs. All selected cell lines were derived from inflammation-associated tumors.
(§2) After the incubation period, the supernatant was discarded from the wells, and the cells were washed two times with 200 µL of PBS. Next, MTT solution at a final concentration of 0.5 mg/mL was added and incubated at 37 °C until purple formazan crystals were formed (30 min to one hour). After incubation, the dye was discarded. In order to dissolve the formed formazan crystals DMSO was added, and the absorbance was measured at λmax = 540 nm, with the reference/background wavelength of 670 nm. All results are expressed as a percentage of the control value which was arbitrary set to 100%. After 72 h treatment, cells were washed with 200 µL of PBS and fixed with 4% paraformaldehyde (PFA) for 15 min at room temperature (RT). Next, cells were stained with 1% CV solution. After 20 min, cells were washed in tap water and dried on air. Dye was dissolved in 33% acetic acid and the absorbance was measured at λmax = 540 nm, with the reference/background wavelength of 670 nm. Results were expressed as a percentage of the control value which was arbitrary set to 100%.
(§3) 1. General methods, materials, and procedures
(§4) 1.1.1. Reagents and cells
(§5) Reagents and cells were obtained from following manufacturers: Capricorn Scientific GmbH (Hessen, Germany) – Culture medium RPMI-1640, Dulbecco's Modified Eagle Medium (DMEM), and fetal bovine serum (FBS). Serva (Heidelberg, Germany) – Paraformaldehyde (PFA). Sigma (St. Louis, MO, USA) – Ethylenediaminetetraacetic acid (EDTA), Dimethyl sulfoxide (DMSO), chloroquine, CV, Triton X-100, RNase, PI, PBS, 3-MA, CFSE, and fluorescent mounting medium. AppliChem (MO, USA) –MTT. Thermo Fisher Scientific (Waltham, MA, USA) – DHR. R&D Systems (Minneapolis, MN, USA) – ApoStat. BD (Pharmingen, San Diego, SAD) – Annexin V-FITC (AnnV). Biological Industries (Cromwell, CT, USA) – Penicillin Streptomycin solution. […]
(§6) Afterwards, cells were washed with phosphate-buffered saline (PBS) and stained with AnnV (15 μg/mL) and PI (15 μg/mL). After 15 min incubation at room temperature (RT) protected from light the cells were resuspended in AnnV-binding buffer and analysed using flow cytom-etry. HCT116 cells were incubated with pan-caspase inhibitor Apostat for 30 min at 37 °C to determine whether detected apoptosis was mediated by caspase activation. Afterwards, cells were washed with PBS and analyzed using flow cytometry. […] Afterwards cells were washed with PBS, resuspended and analyzed by flow cytometry (CyFlow® Space Partec using the PartecFloMax® software

Data set [2] concerns HT-29 colorectal carcinoma. Put plainly: Cell viability, crystal violet (CV) assay, HT-29. It is filed as cell-based. The conditions noted are these: Homo sapiens, 72 h, mean ± SD. The method, then:
as §1, §2, §3, §4, §5, §6

Data set [3] has as its system MDA-MB-231 triple-negative breast adenocarcinoma. Description: Cell viability, MTT assay, MDA-MB-231. In kind it is cell-based, human. The conditions noted are these: Homo sapiens, MDA-MB-231; 72 h, mean ± SD. The procedure:
as §1, §2, §3, §4
(§7) Reagents and cells were obtained from following manufacturers: Capricorn Scientific GmbH (Hessen, Germany) – Culture medium RPMI-1640, Dulbecco's Modified Eagle Medium (DMEM), and fetal bovine serum (FBS). Serva (Heidelberg, Germany) – Paraformaldehyde (PFA). Sigma (St. Louis, MO, USA) – Ethylenediaminetetraacetic acid (EDTA), Dimethyl sulfoxide (DMSO), chloroquine, CV, Triton X-100, RNase, PI, PBS, 3-MA, CFSE, and fluorescent mounting medium. AppliChem (MO, USA) –MTT. Thermo Fisher Scientific (Waltham, MA, USA) – DHR. R&D Systems (Minneapolis, MN, USA) – ApoStat. BD (Pharmingen, San Diego, SAD) – Annexin V-FITC (AnnV). Biological Industries (Cromwell, CT, USA) – Penicillin Streptomycin solution. American Type Culture Collection (ATCC, Manassas, Virginia, USA) – Human lung carcinoma (A549), human breast adenocarcinoma (MDA-MB-231), human colorectal ade-nocarcinoma (HT-29), human colorectal carcinoma (HCT116) and human melanoma (A375).
(§8) Cell lines (A375, HCT116, HT-29 and MDA-MB-231) were cultivated in HEPES-buffered RPMI-1640 medium while A549 cell line was cultivated in Dulbecco's Modified Eagle Medium (DMEM) which were previously supplemented with 10% heat-inactivated FBS, penicillin (100 units/mL), and streptomycin (100 μg/mL). All cells were kept at 37 °C in a humidified atmosphere with 5% CO2. For viability determi-nation cells were seeded at following densities in 96-well plates: 4 x 10^3 cells/well (A375, HT-29 and MDA-MB-231), 5 x 10^3 cells/well (HCT116), and 3 x 10^3 cells/well (A549). […]
(§9) Afterwards, cells were washed with phosphate-buffered saline (PBS) and stained with AnnV (15 μg/mL) and PI (15 μg/mL). After 15 min incubation at room temperature (RT) protected from light the cells were resuspended in AnnV-binding buffer and analysed using flow cytom-etry. HCT116 cells were incubated with pan-caspase inhibitor Apostat for 30 min at 37 °C to determine whether detected apoptosis was mediated by caspase activation. Afterwards, cells were washed with PBS and analyzed using flow cytometry. HCT116 cells were stained with 1 µg/mL of AO solution for 15 min at 37 °C to detect the presence of autophagic cell death. Afterwards cells were washed with PBS, resuspended and analyzed by flow cytometry (CyFlow® Space Partec using the PartecFloMax® software

Data set [4] relates to A549 lung adenocarcinoma. Description: Cell viability, MTT assay, A549. In kind it is cell-based, human. The conditions noted are these: Homo sapiens, A549; 72 h, mean ± SD. The procedure:
as §1, §2, §3, §4, §7, §8, §9
On the technique in general: Tetrazolium assays rely on reduction of a dye to a coloured formazan, in cell work by metabolically active cells.

The subject of data set [5] is HCT116 colorectal carcinoma. Put plainly: Cell viability, crystal violet (CV) assay, HCT116. The conditions noted are these: Homo sapiens, HCT-116; 72 h, mean ± SD. It is filed as cell-based. The method, then:
as §1, §2, §3, §4, §5, §6

In data set [6] the test system is HCT116 colorectal carcinoma. Description: Cell viability, MTT assay, HCT116. It is filed as cell-based, human. The conditions noted are these: Homo sapiens, HCT-116; 72 h, mean ± SD. The procedure:
as §1, §2, §3, §4, §7, §8
(§10) Afterwards, cells were washed with phosphate-buffered saline (PBS) and stained with AnnV (15 μg/mL) and PI (15 μg/mL). […]
(§11) PBS and analyzed using flow cytometry. HCT116 cells were stained with 1 µg/mL of AO solution for 15 min at 37 °C to detect the presence of autophagic cell death. Afterwards cells were washed with PBS, resuspended and analyzed by flow cytometry (CyFlow® Space Partec using the PartecFloMax® software

The test system of data set [7] is A549 lung adenocarcinoma. Put plainly: Cell viability, crystal violet (CV) assay, A549. It is filed as cell-based. The conditions noted are these: Homo sapiens, 72 h, mean ± SD. The procedure:
as §1, §2, §3, §4, §5, §6

A short description of a further data set: physchem. The conditions noted are these: pH 7.4.
Data set [8] has as its system A375 melanoma. Put plainly: Cell viability, MTT assay, A375. It is filed as cell-based, human. The conditions noted are these: Homo sapiens, A-375; 72 h, mean ± SD. The method, then:
as §1, §2, §3, §4, §7, §8, §10, §11

In data set [9] the test system is HT-29 colorectal carcinoma. Put plainly: Cell viability, MTT assay, HT-29. It is filed as cell-based, human. The conditions noted are these: Homo sapiens, HT-29; 72 h, mean ± SD. The procedure: as §1, §2, §3, §4, §7, §8, §9
Data set [10] relates to MDA-MB-231 triple-negative breast adenocarcinoma. Description: Cell viability, crystal violet (CV) assay, MDA-MB-231. In kind it is cell-based. The conditions noted are these: Homo sapiens, 72 h, mean ± SD. The procedure:
as §1, §2, §3, §4, §5, §6

For data set [11], the system named is primary peritoneal exudate cells. Description: Viability of primary peritoneal exudate cells, CV assay. The conditions noted are these: 72 h, cells from healthy mice. In kind it is cell-based.
Description: Primary peritoneal exudates cells (PEC) isolated from C57BL/6 mice were used to estimate the selec-
Mice were obtained from the animal facility at the Institute for Biological Research “Siniša Stanković” - National Institute of the Republic of Serbia, University of Belgrade (Belgrade, Serbia). PEC were cultivated in HEPES-buffered (HEPES = 4-
5% heat-inactivated fetal bovine serum (FBS) and antibiotics under standard growth conditions (37 °C, 5% CO2). For viability determination cells were seeded at a density of 2 x 10^5 cells/well in 96-well plates.
Non-adherent cells were removed two hours after seeding and treatment was applied. Cell viability was determined after 72 h using a crystal violet (CV) assay.
the indicated concentrations for 72 h. Cell viability was determined by the CV test. The data are presented as a mean ± SD from one repre-
sentative out of three independent experiments. *p<0.05 refer to untreated cultures.

The structures appear in SMILES notation.

In general, inhibition refers to the change of the read-out against control, counted positive when it falls. The term IC50 denotes the concentration that inhibits the measured activity by half. Low readings indicate inhibition by little substance, high ones a need for much substance. In general, chromatographic logD refers to lipophilicity estimated from chromatographic retention. Higher therefore signals a more lipophilic compound.

Description for 5-LO: After 10 min at 37 °C, the reaction was stopped by addition of ice-cold methanol (1 mL). HCl (30 μL, 1 M), prostaglandin B1 (200 ng) and PBS (500 μL) were added and the formed metabolites were extracted and analyzed by HPLC as described previously [96].

As to `CC(=O)N(O)C/C=C/c1cccc(Oc2ccccc2)c1` [BWA4C, N-[(E)-3-(3-Phenoxyphenyl)prop-2-enyl]acetohydroxamic acid], the inhibition at 0.1 µM on 5-LO was found to be 92.5%.

Take `CON1CCC(=Cc2cc(C(C)(C)C)c(O)c(C(C)(C)C)c2)C1=O` [Compound E-5110, 3-([3,5-bis(1,1-dimethylethyl)-4-hydroxyphenyl]methylene)-1-methoxy-2-pyrrolidinone]: the IC50 in the data set on A375 melanoma [1] was 33.5 ± 1.7 µM; in [2] it was 39.8 ± 2.1 µM; in [3], 34.2 ± 1.2 µM; with A549 lung adenocarcinoma [4], 22.1 ± 1.6 µM; in data set [5], 39.6 ± 2.8 µM; in data set [6], 25.1 ± 1.1 µM. In addition, the IC50 in the data set with A549 lung adenocarcinoma [7] was 41.1 ± 4.3 µM; in the data set with A375 melanoma [8], 12.9 ± 1.1 µM; in data set [9], 25.6 ± 2.6 µM; in [10], 47.3 ± 1.7 µM. In “physchem”, this compound returned a chromatographic logD of 3.35.

Turning to `CC(C)(C)c1cc(C(=O)c2cccs2)cc(C(C)(C)C)c1O` [Compound R-830, 2,6-di-tert-butyl-4-(2’-thenoyl)phenol], the IC50 in the data set with A375 melanoma [1] is 29.4 ± 2.3 µM; in data set [2], 24.9 ± 1.3 µM; in data set [3], 33.3 ± 1.2 µM; with A549 lung adenocarcinoma [4], 19 ± 0.7 µM; in data set [5], 30.8 ± 3.2 µM; in data set [6] it was 20.6 ± 0.4 µM. Further, the half-inhibitory concentration (IC50) amounted to 32.6 ± 1.3 µM in the data set on A549 lung adenocarcinoma [7], 16.7 ± 3.1 µM with A375 melanoma [8], 19.4 ± 0.4 µM in data set [9] and 34 ± 1.6 µM in [10]. The “viability of primary peritoneal exudate cells” value in [11] was “diminished the viability of primary cells at 100 µM”. The compound also registered a chromatographic logD in “physchem” of 3.91.
